Measurements published in PubChem BioAssay AID256 (DTP/NCI, 2004).
Values joined by “and” are separate entries in the source; they are usually repeats but may differ in a detail not shown here. Identical values can stand only once. Toxic doses and inconclusive results are not listed. Rule for the calls: active = survival T/C of 150% or more; inactive = T/C below 125% in these data.

System: CD2F1 mice, L1210 leukemia ip, survival T/C
Experiment: NCI In Vivo Anticancer Drug Screen. Data for tumor model L1210 Leukemia (intraperitoneal) in CD2F1 (CDF1) mice
Conditions: higher = longer survival
How it was run: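 Transplantable tumor in mice; compound-treated vs vehicle-treated groups. Read-out = treated/control ratio of the measured endpoint.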

[1] = endpoint: mean survival time, dose: 100.0 mg/kg/injection, schedule: Q01DX001 (ip), vehicle: saline with Tween-80
[2] = endpoint: mean survival time, dose: 200.0 mg/kg/injection, schedule: Q01DX001 (ip), vehicle: saline with Tween-80
[3] = endpoint: mean survival time, dose: 400.0 mg/kg/injection, schedule: Q01DX001 (ip), vehicle: saline with Tween-80
[4] = endpoint: mean survival time, dose: 100.0 mg/kg/injection, schedule: Q04DX002 (ip), vehicle: saline with Tween-80
[5] = endpoint: mean survival time, dose: 200.0 mg/kg/injection, schedule: Q04DX002 (ip), vehicle: saline with Tween-80
[6] = endpoint: mean survival time, dose: 100.0 mg/kg/injection, schedule: Q01DX009 (ip), vehicle: saline with Tween-80
[7] = endpoint: mean survival time, dose: 200.0 mg/kg/injection, schedule: Q01DX009 (ip), vehicle: saline with Tween-80
[8] = endpoint: mean survival time, dose: 400.0 mg/kg/injection, schedule: Q01DX009 (ip), vehicle: saline with Tween-80
[9] = endpoint: mean survival time, dose: 100.0 mg/kg/injection, schedule: Q04DX003 (ip), vehicle: saline
[10] = endpoint: mean survival time, dose: 100.0 mg/kg/injection, schedule: Q04DX003 (ip), vehicle: saline with Tween-80
[11] = endpoint: mean survival time, dose: 200.0 mg/kg/injection, schedule: Q04DX003 (ip), vehicle: saline with Tween-80
[12] = endpoint: mean survival time, dose: 400.0 mg/kg/injection, schedule: Q04DX003 (ip), vehicle: saline with Tween-80
[13] = endpoint: mean survival time, dose: 100.0 mg/kg/injection, schedule: Q01DX001 (ip), vehicle: saline
[14] = endpoint: mean survival time, dose: 200.0 mg/kg/injection, schedule: Q01DX001 (ip), vehicle: saline
[15] = endpoint: mean survival time, dose: 400.0 mg/kg/injection, schedule: Q01DX001 (ip), vehicle: saline

Measured: T/C

COc1cc(NC(N)=O)ccc1Nc1c2ccc(N)cc2nc2cc(N)ccc12
inactive: endpoint: mean survival time, dose: 0.5 mg/kg/injection, schedule: Q01DX009 (ip), vehicle: saline 100 % of control | endpoint: mean survival time, dose: 1.0 mg/kg/injection, schedule: Q01DX009 (ip), vehicle: saline 98 % of control | endpoint: mean survival time, dose: 2.0 mg/kg/injection, schedule: Q01DX009 (ip), vehicle: saline 102 % of control | endpoint: mean survival time, dose: 4.0 mg/kg/injection, schedule: Q01DX009 (ip), vehicle: saline 102 % of control | endpoint: mean survival time, dose: 8.0 mg/kg/injection, schedule: Q01DX009 (ip), vehicle: saline 103 % of control | endpoint: mean survival time, dose: 16.0 mg/kg/injection, schedule: Q01DX009 (ip), vehicle: saline 111 % of control

C1=C(c2ccccc2)NCC1c1ccccc1 (stereo unspecified)
inactive: [1] 94 % of control | [2] 86 % of control | [3] 89 % of control

CC1(C(=O)c2ccccc2)OC1c1ccccc1 (stereo unspecified)
inactive: endpoint: mean survival time, dose: 100.0 mg/kg/injection, schedule: Q04DX003 (ip), vehicle: acetone 103 % of control | endpoint: mean survival time, dose: 200.0 mg/kg/injection, schedule: Q04DX003 (ip), vehicle: acetone 103 % of control | endpoint: mean survival time, dose: 400.0 mg/kg/injection, schedule: Q04DX003 (ip), vehicle: acetone 98 % of control

N#Cc1cccc(/C=C/c2ccc(S(=O)(=O)F)cc2)c1
inactive: endpoint: mean survival time, dose: 100.0 mg/kg/injection, schedule: Q01DX001 (ip), vehicle: other 95 % of control and 102 % of control | endpoint: mean survival time, dose: 100.0 mg/kg/injection, schedule: Q04DX002 (ip), vehicle: other 92 % of control and 98 % of control | endpoint: mean survival time, dose: 100.0 mg/kg/injection, schedule: Q04DX003 (ip), vehicle: other 100 % of control and 111 % of control | endpoint: mean survival time, dose: 200.0 mg/kg/injection, schedule: Q01DX001 (ip), vehicle: other 88 % of control and 102 % of control | endpoint: mean survival time, dose: 200.0 mg/kg/injection, schedule: Q04DX002 (ip), vehicle: other 101 % of control and 107 % of control | endpoint: mean survival time, dose: 200.0 mg/kg/injection, schedule: Q04DX003 (ip), vehicle: other 99 % of control and 105 % of control | endpoint: mean survival time, dose: 400.0 mg/kg/injection, schedule: Q01DX001 (ip), vehicle: other 92 % of control and 103 % of control | endpoint: mean survival time, dose: 400.0 mg/kg/injection, schedule: Q04DX002 (ip), vehicle: other 93 % of control and 107 % of control

COC(=O)C(OC)c1ccc2ccccc2c1 (stereo unspecified)
inactive: [4] 98 % of control | [5] 98 % of control | endpoint: mean survival time, dose: 400.0 mg/kg/injection, schedule: Q04DX002 (ip), vehicle: saline with Tween-80 102 % of control

CCOC(=O)CCCc1ccccc1
inactive: [6] 93 % of control | [7] 95 % of control | [8] 102 % of control

O=C(O)COc1ccc(Cl)cc1Cl (tested in a mixture with another compound)
inactive: endpoint: mean survival time, dose: 12.5 mg/kg/injection, schedule: Q01DX009 (ip), vehicle: saline with Tween-80 89 % of control | endpoint: mean survival time, dose: 25.0 mg/kg/injection, schedule: Q01DX009 (ip), vehicle: saline with Tween-80 94 % of control | endpoint: mean survival time, dose: 25.0 mg/kg/injection, schedule: Q04DX002 (ip), vehicle: saline with Tween-80 111 % of control | endpoint: mean survival time, dose: 50.0 mg/kg/injection, schedule: Q01DX009 (ip), vehicle: saline with Tween-80 87 % of control and 104 % of control | endpoint: mean survival time, dose: 50.0 mg/kg/injection, schedule: Q04DX002 (ip), vehicle: saline with Tween-80 121 % of control | [6] 101 % of control | [4] 99 % of control | [7] 93 % of control | [5] 96 % of control

NC(=S)N/N=C1/CCN2CCCc3cccc1c32
inactive: endpoint: mean survival time, dose: 5.0 mg/kg/injection, schedule: Q01DX001 (ip), vehicle: saline with Tween-80 98 % of control | endpoint: mean survival time, dose: 10.0 mg/kg/injection, schedule: Q01DX001 (ip), vehicle: saline with Tween-80 97 % of control | endpoint: mean survival time, dose: 20.0 mg/kg/injection, schedule: Q01DX001 (ip), vehicle: saline with Tween-80 98 % of control

COc1nc(NC2OCC(O)C(O)C2O)c(I)c(=O)n1C (stereo unspecified)
inactive: endpoint: median survival time, dose: 12.5 mg/kg/injection, schedule: Q01DX005 (ip), vehicle: saline with Tween-80 101 % of control | endpoint: median survival time, dose: 25.0 mg/kg/injection, schedule: Q01DX005 (ip), vehicle: saline with Tween-80 100 % of control | endpoint: median survival time, dose: 50.0 mg/kg/injection, schedule: Q01DX005 (ip), vehicle: saline with Tween-80 100 % of control | endpoint: median survival time, dose: 100.0 mg/kg/injection, schedule: Q01DX005 (ip), vehicle: saline with Tween-80 101 % of control | endpoint: median survival time, dose: 200.0 mg/kg/injection, schedule: Q01DX005 (ip), vehicle: saline with Tween-80 100 % of control

CCCCCC(O)CCC(=O)NN (stereo unspecified)
inactive: [9] 100 % of control | endpoint: mean survival time, dose: 200.0 mg/kg/injection, schedule: Q04DX003 (ip), vehicle: saline 117 % of control

Clc1nnc(Cl)c(Cl)c1Cl
inactive: endpoint: mean survival time, dose: 1.56 mg/kg/injection, schedule: Q04DX003 (ip), vehicle: saline with Tween-80 88 % of control | endpoint: mean survival time, dose: 3.13 mg/kg/injection, schedule: Q04DX003 (ip), vehicle: saline with Tween-80 88 % of control

CCOC(=O)/C=C/C(C(=O)OCC)C(=O)OCC
inactive: [10] 103 % of control | [11] 97 % of control | [12] 101 % of control

CCOC(=O)C1CC2(CC(C(=O)O)C2)C1 (stereo unspecified)
inactive: [13] 97 % of control | [14] 93 % of control | [15] 105 % of control

C#CCN(CC#C)C(=O)CCCCCCCCC=C
inactive: [6] 90 % of control | [10] 107 % of control | [7] 93 % of control | [11] 92 % of control | [8] 93 % of control | [12] 98 % of control

NOCc1nnc(Nc2ccccc2)s1
inactive: [13] 100 % of control | [14] 97 % of control | [15] 96 % of control

C[N+](C)(C)c1ccc(Cc2ccc([N+](C)(C)C)cc2)cc1
inactive: endpoint: mean survival time, dose: 6.3 micrograms/kg/injection, schedule: Q04DX002 (ip), vehicle: saline with Tween-80 101 % of control | endpoint: mean survival time, dose: 12.5 micrograms/kg/injection, schedule: Q04DX002 (ip), vehicle: saline with Tween-80 108 % of control | endpoint: mean survival time, dose: 25.0 micrograms/kg/injection, schedule: Q04DX002 (ip), vehicle: saline with Tween-80 101 % of control

Cn1c(=O)c2c(ncn2CCNCC(O)c2cc(C(C)(C)C)c(O)c(C(C)(C)C)c2)n(C)c1=O (stereo unspecified)
inactive: endpoint: mean survival time, dose: 12.5 mg/kg/injection, schedule: Q01DX005 (ip), vehicle: distilled water + Tween-80 100 % of control | endpoint: mean survival time, dose: 25.0 mg/kg/injection, schedule: Q01DX005 (ip), vehicle: distilled water + Tween-80 100 % of control | endpoint: mean survival time, dose: 50.0 mg/kg/injection, schedule: Q01DX005 (ip), vehicle: distilled water + Tween-80 106 % of control | endpoint: mean survival time, dose: 100.0 mg/kg/injection, schedule: Q01DX005 (ip), vehicle: distilled water + Tween-80 109 % of control | endpoint: mean survival time, dose: 200.0 mg/kg/injection, schedule: Q01DX005 (ip), vehicle: distilled water + Tween-80 101 % of control

CC12CCC(CC1CO)C2 (stereo unspecified)
inactive: [10] 88 % of control | [11] 87 % of control

COc1ccc(C2C3CCC(C3)C2N)cc1 (stereo unspecified)
inactive: endpoint: mean survival time, dose: 5.0 mg/kg/injection, schedule: Q01DX009 (ip), vehicle: saline 96 % of control | endpoint: mean survival time, dose: 10.0 mg/kg/injection, schedule: Q01DX009 (ip), vehicle: saline 96 % of control | endpoint: mean survival time, dose: 20.0 mg/kg/injection, schedule: Q01DX009 (ip), vehicle: saline 92 % of control | endpoint: mean survival time, dose: 25.0 mg/kg/injection, schedule: Q04DX003 (ip), vehicle: saline 101 % of control | endpoint: mean survival time, dose: 50.0 mg/kg/injection, schedule: Q04DX003 (ip), vehicle: saline 96 % of control | [9] 90 % of control

CC(C)CC(Br)C(=O)NCC(=O)O (stereo unspecified)
inactive: [10] 95 % of control | [11] 113 % of control | [12] 105 % of control

COC(=O)c1ccc(C(=O)OC)cc1
inactive: [6] 95 % of control | [10] 93 % of control | [7] 98 % of control | [11] 104 % of control | [8] 95 % of control | [12] 101 % of control

S=C(Nc1ccccc1)Nc1ccccn1
inactive: [1] 97 % of control | [2] 105 % of control | [3] 109 % of control

CC(=O)C(C)OS(C)(=O)=O (stereo unspecified)
inactive: endpoint: mean survival time, dose: 25.0 mg/kg/injection, schedule: Q04DX003 (ip), vehicle: saline with Tween-80 108 % of control | endpoint: mean survival time, dose: 50.0 mg/kg/injection, schedule: Q04DX003 (ip), vehicle: saline with Tween-80 108 % of control | [10] 109 % of control | [11] 120 % of control

O=[N+]([O-])c1ccc(OCc2ccccc2)nc1
inactive: [1] 86 % of control | [2] 100 % of control | [3] 93 % of control

O=S(O)c1ccccc1
inactive: [13] 92 % of control | [14] 94 % of control | [15] 110 % of control

CCOC(CNC(=O)NC1CCCCC1)OCC
inactive: [6] 113 % of control | [10] 103 % of control | [7] 104 % of control | [11] 104 % of control | [8] 108 % of control | [12] 93 % of control
